From patent US4735958A, “Trans-6-[2-[2-(substituted-phenyl)-3- (or 4-) heteroaryl-5-substituted-1H-pyrrol-1-yl]-ethyl]tetrahydro-4-hydroxy-2H-p yran-2-one inhibitors of cholesterol biosynthesis” (Warner-Lambert Company, priority 1986, dated 1988)

Tested on: sterol synthesis
Experiment: CSI: inhibition of cholesterol biosynthesis, incorporation of cholesterol-^14 C-acetate into nonsaponifiable lipid by rat liver homogenate
Format: biochemical
Settings: 50% inhibition of sterol synthesis over a one-hour period; liver homogenate of rats fed chow diet containing 5% cholestyramine for four days
Description: The ability of compounds of the present invention to inhibit the biosynthesis of cholesterol was measured by the procedure described by R. E. Dugan et al., Archiv. Biochem. Biophys., (1972), 152, 21-27. In this method, designated CSI, the level of HMG-CoA enzyme activity in standard laboratory rats is increased by feeding the rats a chow diet containing 5% cholestyramine for four days, after which the rats are sacrificed.
The rat livers are homogenized, and the incorporation of cholesterol-^14 C-acetate into nonsaponifiable lipid by the rat liver homogenate is measured. The micromolar concentration of compound required for 50% inhibition of sterol synthesis over a one-hour period is measured, and expressed as an IC50 value.

Row | IC50 [nM] | Structure (SMILES)
1 | 18 | CC[C@H](C)C(=O)O[C@H]1CCC=C2C=C[C@H](C)[C@H](CC[C@@H]3C[C@@H](O)CC(=O)O3)[C@H]21 [Compactin, reference compound]
2 | 13 | CC(C)c1cc(-c2ccncc2)c(-c2ccc(F)cc2)n1CC[C@H]1C[C@H](O)CC(=O)O1 (racemic) [Compound 3, trans-(±)-6-[2-[2-(4-Fluorophenyl)-5-(1-methylethyl)-3-(4-pyridinyl)-1H-pyrrol-1-yl]ethyl]tetrahydro-4-hydroxy-2H-pyran-2-one]
3 | 55 | CC(C)c1cc(-c2cccnc2)c(-c2ccc(F)cc2)n1CC[C@@H]1C[C@@H](O)CC(=O)O1 (relative stereo) [Compound 2, trans-(±)-6-[2-[2-[(4-Fluorophenyl)-5-(1-methylethyl)-3-(3-pyridinyl)-1H-pyrrol-1-yl]ethyl]tetrahydro-4-hydroxy-2H-pyran-2-one]
4 | 48 | CC(C)c1cc(-c2ccccn2)c(-c2ccc(F)cc2)n1CC[C@H]1C[C@H](O)CC(=O)O1 (racemic) [Compound 1, trans-(±)-6-[2-[2-(4-Fluorophenyl)-5-(1-methylethyl)-3-(2-pyridinyl)-1H-pyrrol-1-yl]ethyl]tetrahydro-4-hydroxy-2H-pyran-2-one]
